Source: patent US8440652B2, “MST1 kinase inhibitors and methods of their use” (Lexicon Pharmaceuticals, Inc., priority 2011, dated 2013)
Where two headings read alike, the source gives them in different places.

Key:
rat EAE model = test: Rat EAE disease model; type: in vivo
MST1 = molecular target: T1, MST1 (Homo sapiens, UniProt Q13043); test: In vitro measurement of MST1 inhibition (Z′-Lyte kinase assay); type: biochemical
T1 sequence (Q13043 1-487): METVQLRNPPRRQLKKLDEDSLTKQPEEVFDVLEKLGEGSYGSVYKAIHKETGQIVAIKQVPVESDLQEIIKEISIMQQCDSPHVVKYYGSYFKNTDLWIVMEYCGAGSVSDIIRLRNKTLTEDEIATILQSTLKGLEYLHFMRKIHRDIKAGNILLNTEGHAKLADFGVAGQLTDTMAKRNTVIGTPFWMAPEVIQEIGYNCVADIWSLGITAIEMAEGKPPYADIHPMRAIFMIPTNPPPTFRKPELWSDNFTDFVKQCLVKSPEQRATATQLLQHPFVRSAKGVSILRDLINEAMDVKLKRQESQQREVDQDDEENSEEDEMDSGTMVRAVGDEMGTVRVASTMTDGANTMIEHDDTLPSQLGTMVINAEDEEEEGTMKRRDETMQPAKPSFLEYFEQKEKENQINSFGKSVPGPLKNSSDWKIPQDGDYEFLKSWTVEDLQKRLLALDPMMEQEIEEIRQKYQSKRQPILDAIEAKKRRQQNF

[1] = system: Con-A induced hepatitis model; test: Con-A induced hepatitis model; type: in vivo, mouse
Description: This model was generally conducted as follows. C57Bl/6-Albino/129SvEv mice were injected intravenously (i/v) via the lateral tail vein with a single sublethal dose of Concanavalin A from Canavalia ensiformis (Jack bean, Type IV-S, lyophilized powder, aseptically processed; Sigma) administered at 10-16 mg/kg mouse body weight in a total volume of 0.1-0.3 ml of pyrogen-free PBS. The tail vein injections of mice restrained in a Plexiglas mouse restrainer were performed without anesthesia, using a 1 ml syringe with a 27 gauge needle. At six and 24 hr post-injection, blood samples were collected by retro-orbital bleeding. The animals were sacrificed and sera from the blood samples were analyzed for the presence of IL-12, TNF-α, MCP-1, IFN-γ, IL-10, and IL-6 using a mouse inflammation cytometric bead array (CBA) kit (BD Biosciences, Mountain View, Calif.), according to the manufacturer's instructions. Data were acquired with a FACSCalibur flow cytometer and analyzed with BD CBA Software (BD Biosciences). Biochemical markers of liver failure were assessed by measuring serum liver damage enzymes, aspartate aminotransferase (AST) and alanine aminotransferase (ALT), using a standard clinical biochemical analyzer. Livers of ConA-treated mice were sectioned and stained with H&E to evaluate the degree of T cell-mediated immune inflammation.

mouse CIA disease model = test: Mouse CIA disease model; type: in vivo; details: mice, 10, 30, 100 mg/kg PO bid 21 days from Day 20 after immunization; FIG. 4
Description: Eight to 16 weeks old DBA/1 mice were immunized intradermally (i.d.) at several sites into the base of the tail with 100 μg of chicken type II collagen (CII; Sigma Chemical Co.) in Freund's complete adjuvant (CFA; Difco, Detroit, Mich.) containing 2.5 mg/ml M. tuberculosis, followed by a repeat booster i.d. injection of CII (100 μg emulsified in CFA) given 3 weeks after the primary immunization. Mice were monitored daily for signs of arthritis, and disease severity scores were assessed by a visual scoring of 0 to 4 according to the following scale: 0=no erythema and swelling; 1=erythema and mild swelling of the mid-foot or ankle joint; 2=erythema and mild swelling extending from the ankle to the mid-foot; 3=erythema and moderate swelling extending from the ankle to the metatarsal joints; 4=erythema and severe swelling of the ankle, foot, and digits. Total disease severity scores were recorded as a sum of visual scores for four limbs. In addition to visual scoring, paw thickness was measured with a micrometer caliper.

rat CIA disease model = test: Rat CIA disease model; type: in vivo; details: rats, 10 and 25 mg/kg PO BID, 50 mg/kg QD from Day 11 after immunization; FIG. 5
Description: CIA was elicited in rats according to Rosloniec, E. F., et al., Curr Protoc Immunol Chapter 15: Unit 15, pp. 11-25. Here, Lewis rats (150-200 g, female; Charles River Laboratories, Wilmington, Mass.) were injected intradermally at the base of the tail with a total of 300 μl of a 1:1 emulsion of bovine type II collagen (CII; 150 μg total; Sigma-Aldrich) and incomplete Freund's adjuvant (IFA; 150 μl total; Sigma-Aldrich), followed by a repeat booster injection of the same emulsion 7 days after the primary immunization. Rats were monitored for signs of arthritis by clinical scoring (visual observation) of each rat paw, using the rating scale described above. The extent of swelling was calculated by subtracting the baseline values of the first measurement from the values of subsequent measurements.

[2] = 1 μM ATP, read-out: IC50 (μM) 1 μM ATP
[3] = 50 μM ATP, read-out: IC50 (μM) 50 μM ATP

IC50 (MST1; [2]) [µM]	IC50 (MST1; [3]) [µM]	SMILES	also measured
< 0.05	< 0.01	N#CC1(c2ccc(-c3cnc(N)c(-c4ccc5c(c4)CCNC5=O)n3)cc2)CC1 [1-(4-(5-amino-6-(1-oxo-1,2,3,4-tetrahydroisoquinolin-6-yl)pyrazin-2-yl)phenyl)cyclopropanecarbonitrile]	severity of clinical score (rat EAE model; rats, 0.3, 1, 3 or 10 mg/kg PO QD from Day 10 after immunization, FIG. 7A): dose-dependent reduction in severity of clinical score; TNF-α, IL-6, MCP-1, IFN-γ, ALT and AST ([1]; mice, 1, 3, 10, 30 mg/kg PO 16 h and 1 h before and 8 h after Con-A challenge, FIG. 8): clear effect
< 0.01	< 0.01	CN(C1CC1)S(=O)(=O)c1ccc(-c2cnc(N)c(-c3ccc4c(c3)CCNC4=O)c2)cc1 [4-(6-amino-5-(1-oxo-1,2,3,4-tetrahydroisoquinolin-6-yl)pyridin-3-yl)-N-cyclopropyl-N-methylbenzenesulfonamide]	severity of clinical score (rat EAE model; rats, 10, 25 or 50 mg/kg PO BID from Day 9 after immunization, FIG. 3): dose-dependent reduction in severity of clinical score; cumulative arthritis score and change in ankle thickness (mouse CIA disease model): clear benefit versus control; TNF-α, IL-6, MCP-1, IFN-γ, ALT and AST ([1]; mice, 10, 30, 100 mg/kg dosed 16 h and 1 h before and 8 h after Con-A challenge, FIG. 6): clear effect; cumulative arthritis score and change in ankle thickness (rat CIA disease model): therapeutic effect
< 0.05	< 0.01	CCNS(=O)(=O)c1ccc(-c2cnc(N)c(-c3ccc4c(c3)CCC/C4=N\O)c2)cc1 [(E)-4-(6-amino-5-(5-(hydroxyimino)-5,6,7,8-tetrahydronaphthalen-2-yl)pyridin-3-yl)-N-ethylbenzenesulfonamide]	–
< 0.15	< 0.01	CN(C1CC1)S(=O)(=O)c1ccc(-c2cnc(N)c(-c3ccc4c(c3)OC[C@@H](COCc3ccccc3)NC4=O)c2)cc1 [(R)-4-(6-amino-5-(3-((benzyloxy)methyl)-5-oxo-2,3,4,5-tetrahydrobenzo[f][1,4]oxazepin-8-yl)pyridin-3-yl)-N-cyclopropyl-N-methylbenzenesulfonamide]	–
< 0.01	< 0.01	C[C@@H]1COc2cc(-c3cc(-c4ccc(S(=O)(=O)N(C)C5CC5)cc4)cnc3N)ccc2C(=O)N1 [(R)-4-(6-amino-5-(3-methyl-5-oxo-2,3,4,5-tetrahydrobenzo[f][1,4]oxazepin-8-yl)pyridin-3-yl)-N-cyclopropyl-N-methylbenzenesulfonamide]	–
< 0.01	< 0.01	C[C@H]1CNc2cc(-c3nc(-c4ccc(S(=O)(=O)N(C)C5CC5)cc4)cnc3N)ccc2C(=O)N1 [(S)-4-(5-amino-6-(3-methyl-5-oxo-2,3,4,5-tetrahydro-1H-benzo[e][1,4]diazepin-8-yl)pyrazin-2-yl)-N-cyclopropyl-N-methylbenzenesulfonamide]	–
< 0.01	< 0.01	CN(C1CC1)S(=O)(=O)c1ccc(-c2cnc(N)c(-c3ccc4c(c3)OC[C@H](CO)NC4=O)c2)cc1 [(S)-4-(6-amino-5-(3-(hydroxymethyl)-5-oxo-2,3,4,5-tetrahydrobenzo[f][1,4]oxazepin-8-yl)pyridin-3-yl)-N-cyclopropyl-N-methylbenzenesulfonamide]	–
< 0.01	< 0.01	C[C@H]1CNc2cc(-c3cc(-c4ccc(S(=O)(=O)N(C)C5CC5)cc4)cnc3N)ccc2C(=O)N1 [(S)-4-(6-amino-5-(3-methyl-5-oxo-2,3,4,5-tetrahydro-1H-benzo[e][1,4]diazepin-8-yl)pyridin-3-yl)-N-cyclopropyl-N-methylbenzenesulfonamide]	–
< 0.01	< 0.01	C[C@H]1CNc2cc(-c3cc(-c4ccc(S(=O)(=O)NC5CC5)cc4)cnc3N)ccc2C(=O)N1 [(S)-4-(6-amino-5-(3-methyl-5-oxo-2,3,4,5-tetrahydro-1H-benzo[e][1,4]diazepin-8-yl)pyridin-3-yl)-N-cyclopropylbenzenesulfonamide]	–
< 0.05	< 0.01	C[C@H]1COc2cc(-c3cc(-c4ccc(S(=O)(=O)N(C)C5CC5)cc4)cnc3N)ccc2C(=O)N1 [(S)-4-(6-amino-5-(3-methyl-5-oxo-2,3,4,5-tetrahydrobenzo[f][1,4]oxazepin-8-yl)pyridin-3-yl)-N-cyclopropyl-N-methylbenzenesulfonamide]	–
< 0.05	< 0.01	CC(=O)NCc1ccc(-c2cnc(N)c(-c3ccc4c(c3)CCNC4=O)c2)cc1 [N-(4-(6-amino-5-(1-oxo-1,2,3,4-tetrahydroisoquinolin-6-yl)pyridin-3-yl)benzyl)acetamide]	–
< 0.05	< 0.01	CCS(=O)(=O)Nc1ccc(-c2cnc(N)c(-c3ccc4c(c3)CCNC4=O)c2)cc1 [N-(4-(6-amino-5-(1-oxo-1,2,3,4-tetrahydroisoquinolin-6-yl)pyridin-3-yl)phenyl)ethanesulfonamide]	–
< 0.01	< 0.01	C=CCN(C)S(=O)(=O)c1ccc(-c2cnc(N)c(-c3ccc4c(c3)CCNC4=O)c2)cc1 [N-allyl-4-(6-amino-5-(1-oxo-1,2,3,4-tetrahydroisoquinolin-6-yl)pyridin-3-yl)-N-methylbenzenesulfonamide]	–
< 0.05	< 0.01	O=C1NCCc2cc(-c3c[nH]c4ncc(-c5ccc(S(=O)(=O)NC6CC6)cc5)cc34)ccc21 [N-cyclopropyl-4-(3-(1-oxo-1,2,3,4-tetrahydroisoquinolin-6-yl)-1H-pyrrolo[2,3-b]pyridin-5-yl)benzenesulfonamide]	–
< 0.15	< 0.05	CCOC(=O)Cc1ccc(-c2cnc(N)c(-c3ccc4c(c3)CCNC4=O)n2)cc1 [ethyl 2-(4-(5-amino-6-(1-oxo-1,2,3,4-tetrahydroisoquinolin-6-yl)pyrazin-2-yl)phenyl)acetate]	–
< 0.15	< 0.05	COC(=O)CN(C)S(=O)(=O)c1ccc(-c2cnc(N)c(-c3ccc4c(c3)CCNC4=O)c2)cc1 [methyl 2-(4-(6-amino-5-(1-oxo-1,2,3,4-tetrahydroisoquinolin-6-yl)pyridin-3-yl)-N-methylphenylsulfonamido)acetate]	–
< 0.15	< 0.05	CC(C)(C)OC(=O)N1CC=C(c2cnc(N)c(-c3ccc4c(c3)CCNC4=O)c2)CC1 [tert-butyl 6-amino-5-(1-oxo-1,2,3,4-tetrahydroisoquinolin-6-yl)-5′,6′-dihydro-[3,4′-bipyridine]-1′(2′H)-carboxylate]	–
